Patent US5321030A, “Creatine analogs having antiviral activity” (priority 1991, dated 1994)
Values after ≈ are worked out from the molar mass of the structure shown.

Key:
[1] = system: HCMV, strain C8805-37 (DHPG resistant); assay: microbe, parasite or virus in culture; format: cell-based, Human Cytomegalovirus; design: TI50 (CD50 ÷ ED50): unit not given beside the values; details: for # Plaques: virus control 11.5 ± 2.1
[2] = system: Influenza B/Hong Kong/5/72; assay: CPE-reduction assay, Influenza B in MDCK cells; format: cell-based; details: 62.5 μg/ml-4 mg/ml; only at the highest concentration
Method: Cyclocreatine was prepared at a concentration of 100 mg/ml in MEM, without serum, 0.18% NaHCO3, 50 μg/ml gentamicin. Further dilutions (2-fold dilution scheme) were made in MEM without serum.
Cells (0.2 ml/well) were seeded in 96-well flat bottom tissue culture plates, (Corning Glass Works, Corning, N.Y.). The cells were incubated overnight in order to establish cell monolayers. Growth medium was decanted from the 96-well plates and various dilutions of compound were added to wells of the plate (4 wells/dilution; 0.1 ml/well). Medium alone was added to uninfected cell and virus (no drug) control wells (0.1 ml/well). Virus, diluted in test medium (0.1 ml final volume), was added to all compound test wells of the plate (3 wells/dilution) and to 9 virus control wells. Test medium (0.1 ml/well) without virus was added to all toxicity control wells (1 well/dilution for each compound tested) and to 3 uninfected cell control wells.
The plates were incubated at 37° C. until virus control wells (no drug) had CPE readings near 100% CPE. Cells were then examined microscopically for virus CPE and graded on a scale of 0-4, with 0 being no CPE and 4 being 100% CPE. The cells in toxicity control wells were observed microscopically and graded for morphological changes due to cytotoxicity. […]

[3] = system: Parainfluenza Type 3 (PIV-3), strain C243; assay: CPE-reduction assay, parainfluenza type 3 in HEp-2 cells; format: cell-based
[4] = system: Guinea Pig Cytomegalovirus, Strain 22122; assay: CPE reduction assay, guinea pig cytomegalovirus in GPE cells; format: cell-based; design: TI50 (CD50 ÷ ED50): unit not given here; details: for Average CPE: virus controls 4.0

`NC1=NCCN1CC(=O)O` [cyclocreatine, 1-carboxymethyl-2-iminoimidazolidine] was tested, and the “# Plaques” value ([1]; AM-285 156.25 μg/ml) was 9.5, the “# Plaques” value ([1]; AM-285 312.5 μg/ml) was 12 and the “# Plaques” value ([1]; AM-285 625 μg/ml) was 10.5. The “# Plaques” value ([1]; AM-285 1250 μg/ml) was 9.5, the “# Plaques” value ([1]; AM-285 2500 μg/ml) was 6.5 and the “# Plaques” value ([1]; AM-285 5000 μg/ml) was 1.5. The “# Plaques” value ([1]; AM-285 10000 μg/ml) was 0, the inhibition at 156.25 µg/mL ([1]; Human betaherpesvirus 5, MRC5, AM-285 156.25 μg/ml, read-out: % Reduction) was 0% and the inhibition at 312.5 µg/mL ([1]; Human betaherpesvirus 5, MRC5, AM-285 312.5 μg/ml, read-out: % Reduction) was 0%. For the same compound, the inhibition at 625 µg/mL ([1]; Human betaherpesvirus 5, MRC5, AM-285 625 μg/ml, read-out: % Reduction) was 0%, the inhibition at 1250 µg/mL ([1]; Human betaherpesvirus 5, MRC5, AM-285 1250 μg/ml, read-out: % Reduction) was 0% and the inhibition at 2500 µg/mL ([1]; Human betaherpesvirus 5, MRC5, AM-285 2500 μg/ml, read-out: % Reduction) was 43%. It also gave an inhibition at 5000 µg/mL ([1]; Human betaherpesvirus 5, MRC5, AM-285 5000 μg/ml, read-out: % Reduction) of 87%, an inhibition at 10000 µg/mL ([1]; Human betaherpesvirus 5, MRC5, AM-285 10000 μg/ml, read-out: % Reduction) of 100% and an EC50 ([1]; Human betaherpesvirus 5, MRC5, MRC-5 cells, Table 7, read-out: ED50 (the source's name)) of 2780 µg/mL (≈ 19.4 mM). The “TI50 (CD50 ÷ ED50)” value ([1]; MRC-5 cells, Table 7) was greater than 3.6, the “effect on CPE” value [2] was “slight inhibitory effect” and the “Average CPE” value ([3]; 5 mg/ml) was 2.8. The “Average CPE” value ([3]; 10 mg/ml) was 0.5, the “Average CPE” value ([4]; AM-285 156.25 μg/ml) was 4.0 and the “Average CPE” value ([4]; AM-285 312.5 μg/ml) was 4.0. The “Average CPE” value ([4]; AM-285 625 μg/ml) was 3.5, the “Average CPE” value ([4]; AM-285 1250 μg/ml) was 3.3 and the “Average CPE” value ([4]; AM-285 2500 μg/ml) was 2.5. For the same compound, the “Average CPE” value ([4]; AM-285 5000 μg/ml) was 1.7, the “Average CPE” value ([4]; AM-285 10000 μg/ml) was 0.0 and the EC50 ([4]; Caviid betaherpesvirus 2, GPE cells, Table 3, read-out: ED50 (the source's name)) was 3270 µg/mL (≈ 22.9 mM). For the same compound, the “TI50 (CD50 ÷ ED50)” value ([4]; GPE cells, Table 3) was greater than 3.0 and the “effect on CPE” value ([4]; between 0.625 and 5.0 mg/ml) was “An inhibitory effect”.
